Data taken from patent publication US9050330B2, “Method, composition and kit for treating frequent headaches” (priority 2012, dated 2015).

Legend:
sphenopalatine ganglion = conditions: cited from earlier work; for duration of anesthesia provided to the nerve structure: long-acting local anesthetics in SPGB
[1] = test system: tension headaches and migraines; test: Earlier treatment of Patient 1 (tension headaches and migraines); type: in vivo, human; conditions: Patient 1, before the composition
Source text: This patient was a person who experienced tension headaches and migraines. The pain was acute producing nauseas and vomits.

Compound	duration of anesthesia provided to the nerve structure (sphenopalatine ganglion)	outcome of earlier treatment [1]	other results
CCCCN1CCCCC1C(=O)Nc1c(C)cccc1C (centres unmarked) [bupivacaine]	at least about an hour	–	–
CCN(CC)CC(=O)Nc1c(C)cccc1C [lidocaine]	–	–	period for which head pain is decreased (equal to the duration of the analgesia) (sphenopalatine ganglion; shorter-acting local anesthetic in SPGB): less than an hour
Cc1ccccc1C(OCCN(C)C)c1ccccc1 (centres unmarked) [norflex]	–	without success	–
COc1ccc2cc(CCC(C)=O)ccc2c1 [relafen]	–	without success	–
CCCN1CCCC[C@H]1C(=O)Nc1c(C)cccc1C [ropivacaine]	at least about an hour	–	–
